Columns and labels:
[1] = tested on: HT 1080 Xenografts; assay: HT 1080 xenografts in nude mice, tumour growth; format: in vivo, NMRI nu/nu mice; details: HT-1080 xenograft, 50 mg/kg, oral gavage
Protocol: All of the animal experiments were conducted according to the guidelines and ethical standards of the Danish Committee for Animal Experiments. Female NMRI nu/nu mice 6 weeks of age were purchased from M&B (Ry, Denmark). The mice were allowed an acclimatisation period of 1-3 weeks before start of the experiments. The nude mice were housed in Scantainers under semi-sterile conditions and all handling of mice was performed in a laminar flow bench.
HT 1080 Xenografts. NMRI nu/nu mice were injected with 2×10^6 cells in 0.2 ml media s.c. in each flank and tumour size was measured as described for the NYH model. Compound A was given for fourteen days by oral gavage from day 4 when the tumour size was 22-24 mm^2. Each treatment group consisted of 10 mice.
Statistical Methods In the animal models, tumour sizes were expressed by the mean of the trends in each treatment group. The trend is the linear increment or tumour size, where tumour size is the square root of the (mean) area of the tumour(s). Comparison with controls was expressed as T/C % and calculated as follows:
A=(overall mean tumour size at baseline+mean trend of treatment*intended days of treatment) […]
Overall mean tumour size at baseline=pooling all treatments this is the mean of all baseline values. For each mouse the baseline value is calculated as the square root of the (mean) area of the tumour(s). […]

[2] = tested on: PC-3 cells; assay: DNA synthesis (tritiated thymidine incorporation) in PC-3 cells; format: cell-based; details: Homo sapiens, 144 h incubation, mean ± SD of two to four experiments
Protocol: DNA synthesis: NYH SCLC, HT-1080, Colo-320, PC-3 and H460 cells (7.5×10^3 cells/ml) were seeded in tissue culture vessels and the test compound were added 2 h after plating. Following an incubation for 144 h tritiated thymidine (5 CI/mmol, Amersham Pharmacia Biotech) was added to the culture at the concentration of 1 μCi/ml, and the cells were incubated for additional 4 h. The incorporated thymidine was measured with a β-counter. Each compound concentration was tested in triplicate.

SMILES: N#CNC(=Nc1ccncc1)NCCCCCCOc1ccc(Cl)cc1 [compound A, N-(6-(4-chlorophenoxy)hexyl)-N′-cyano-N″-(4-pyridyl)guanidine]
- In vivo xenografts in nude mice T/C (%) [1]: −77%
- IC50 [2]: 5.6 ± 0.3 nM

Source: US6642215B2 (Leo Pharma A/S, priority 2001, dated 2003)
